This is an account of results in publication PMC8248988, “A signal capture and proofreading mechanism for the KDEL-receptor explains selectivity and dynamic range in ER retrieval” (eLife, 2021).

Common to all, as to type: cell-based
Holding throughout (settings): COS-7 cells

For one test, the target named is T1, human KDELR1 E117A (Homo sapiens, UniProt P24390, E117A).
T1 construct: expressed in transfected cells; host or cells: COS-7
As to the kind of experiment: ER retrieval assay, KDELR1 E117A-GFP. An excerpt:
(§1) To create KDELR1-GFP and KDELR2-GFP, the reading frames for Homo sapiens KDELR1 (Uniprot: P24390) and KDELR2 (Uniprot: P33947) were cloned into the pEF5/FRT low level mammalian expression vector with a C-terminal 20 amino acid linker made up of 5 copies of Gly-Ser-Ser-Ser followed by GFP. Specific point mutations were introduced using the Quickchange protocol (Stratagene) and are described in the key resources table and figures. To create the mScarlet-KDEL^sec ligand construct, mScarlet with an N-terminal hGH signal peptide and the 16 C-terminal residues of human BiP at its C-terminus, containing the KDEL signal, was cloned into the pcDNA3.1 vector. […] The Golgi marker protein TGN46 was detected by antibody (sheep anti-TGN46 AHP500G; AbD Serotec) and an Alexa 647 conjugated secondary anti-sheep secondary (A-21448, Invitrogen). In Figure 1d and e, endogenous KDELR was detected by antibody (mouse anti-KDELR ADI-VAA-PT048; Enzo Life Sciences) and Alexa 488 conjugated anti-mouse secondary antibody (A-21202, Invitrogen). For retrieval assays in other figures, KDELR-GFP fusion proteins were directly detected by fluorescence. The mScarlet-xDEL fusion proteins were directly detected by fluorescence. […] The fraction of KDEL receptor in the Golgi apparatus was calculated by dividing the Golgi signal by the total cell signal. […]

The target in the next test is T2, human KDELR1 N54K (Homo sapiens, UniProt P24390, N54K).
T2 construct: expressed in transfected cells; host or cells: COS-7
As to the kind of experiment: ER retrieval assay, KDELR1 N54K-GFP.
Excerpt: as §1

A further test concerns the target T3, human KDELR1 D50N/N54R (Homo sapiens, UniProt P24390, D50N/N54R).
T3 construct: expressed in transfected cells; host or cells: COS-7
In words: ER retrieval assay, KDELR1 D50N/N54R-GFP.
Excerpt: as §1

In a further test the target is T4, human KDELR1 D50N (Homo sapiens, UniProt P24390, D50N).
T4 construct: expressed in transfected cells; host or cells: COS-7
In words: ER retrieval assay, KDELR1 D50N-GFP.
Excerpt: as §1

The target of test [1] is T5, human KDELR1 D50N/N54K/E117Q (Homo sapiens, UniProt P24390, D50N/E117Q/N54K).
T5 construct: expressed in transfected cells; host or cells: COS-7
As to the kind of experiment: ER retrieval assay, KDELR1 D50N/N54K/E117Q-GFP (K. lactis like).
Excerpt: as §1

For a further test, the target named is T6, human KDELR1 N54K/E117Q (Homo sapiens, UniProt P24390, E117Q/N54K).
T6 construct: expressed in transfected cells; host or cells: COS-7
As to the kind of experiment: ER retrieval assay, KDELR1 N54K/E117Q-GFP.
Excerpt: as §1

T5 sequence (P24390 whole entry D50N/N54K/E117Q): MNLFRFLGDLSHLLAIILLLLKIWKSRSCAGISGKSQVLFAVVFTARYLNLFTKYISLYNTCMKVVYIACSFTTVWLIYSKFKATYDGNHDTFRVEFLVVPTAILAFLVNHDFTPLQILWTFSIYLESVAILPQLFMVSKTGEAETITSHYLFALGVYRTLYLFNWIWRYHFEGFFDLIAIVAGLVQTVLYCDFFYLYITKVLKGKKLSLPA
T3 sequence (P24390 whole entry D50N/N54R): as the sequence (P24390 whole entry D50N/N54K/E117Q) above, with K54R, Q117E counted along it
T1 sequence (P24390 whole entry E117A): as the sequence (P24390 whole entry D50N/N54K/E117Q) above, with N50D, K54N, Q117A counted along it
T6 sequence (P24390 whole entry N54K/E117Q): as the sequence (P24390 whole entry D50N/N54K/E117Q) above, with N50D counted along it
T2 sequence (P24390 whole entry N54K): as the sequence (P24390 whole entry D50N/N54K/E117Q) above, with N50D, Q117E counted along it
T4 sequence (P24390 whole entry D50N): as the sequence (P24390 whole entry D50N/N54K/E117Q) above, with K54N, Q117E counted along it

For “ADEL [pcDNA3.1 hGHss-mScarlet-H. sapiens BiP639-654K651A (ADEL^SEC), secreted mScarlet fusion with human BiP C-terminus, ADEL signal]”, the “ligand-induced receptor retrieval to the ER (in words)” value at human KDELR1 E117A is “relocated to the ER”; on human KDELR1 N54K, “did not result in ADEL or DDEL recognition”; at human KDELR1 D50N/N54R it was “gave a response”; at human KDELR1 D50N, “abolished the response to all signal variants”; in test [1] it was “improved the response”; on human KDELR1 N54K/E117Q it was “switched specificity towards ADEL and DDEL”.
